The text below walks through data of patent publication US20230053437A1, “LIPID COMPOUNDS AND LIPID NANOPARTICLE COMPOSITIONS” (Suzhou Abogen Biosciences Co., Ltd., priority 2020, published 2023).

Holding throughout (type): physicochemical
The nature of series [1]: Encapsulation efficiency of lipid nanoparticles, Quant-it Ribogreen RNA quantification assay. The conditions noted are these: LNP with hEPO mRNA. On the procedure: (§1) Briefly, a cationic lipid provided herein, DSPC, cholesterol, and PEG-lipid were solubilized in ethanol at a molar ratio of 50:10:38.5:1.5, and mRNA were diluted in 10 to 50 mM citrate buffer, pH=4. The LNPs were prepared at a total lipid to mRNA weight ratio of approximately 10:1 to 30:1 by mixing the ethanolic lipid solution with the aqueous mRNA solution at a volume ratio of 1:3 using a microfluidic apparatus, total flow rate ranging from 9-30 mL/min. Ethanol were thereby removed and replaced by DPBS using dialysis. Finally, the lipid nanoparticles were filtered through a […] sterile filter.
(§2) Lipid nanoparticle size were determined by dynamic light scattering using a Malvern Zetasizer Nano ZS (Malvern UK) using a 173° backscatter detection mode. The encapsulation efficiency of lipid nanoparticles were determined using a Quant-it Ribogreen RNA quantification assay kit (Thermo Fisher Scientific, UK) according to the manufacturer's instructions.

The nature of series [2]: Apparent pKa of LNP formulations, TNS fluorescence assay. The following applies: LNP cationic lipid/DSPC/cholesterol/DMG-PEG 50/10/38.5/1.5 mol %, pH 3 to 9. As for the experimental part:
As reported in literature, the apparent pKa of LNP formulations correlates with the delivery efficiency of LNPs for nucleic acids in vivo. The apparent pKa of each formulation was determined using an assay based on fluorescence of 2-(p-toluidino)-6-napthalene sulfonic acid (TNS). LNP formulations comprising of cationic lipid/DSPC/cholesterol/DMG-PEG (50/10/38.5/1.5 mol %) in PBS were prepared as described above. TNS was prepared as a 300 uM stock solution in distilled water. LNP formulations were diluted to 0.1 mg/ml total lipid in 3 mL of buffered solutions containing 50 mM sodium citrate, 50 mM sodium phosphate, 50 mM sodium borate, and 30 mM sodium chloride where the pH ranged from 3 to 9. An aliquot of the TNS solution was added to give a final concentration of 0.1 mg/ml and following vortex mixing fluorescence intensity was measured at room temperature in a Molecular Devices Spectramax iD3 spectrometer using excitation and mission wavelengths of 325 nm and 435 nm. A sigmoidal best fit analysis was applied to the fluorescence data and the pKa value was measured as the pH giving rise to half-maximal fluorescent intensity.

Series [3] is described as follows: Lipid nanoparticle size by dynamic light scattering (Malvern Zetasizer Nano ZS). The following applies: LNP: cationic lipid/DSPC/cholesterol/PEG-lipid 50:10:38.5:1.5 with hEPO mRNA. As for the experimental part: as §1, §2

Turning to `CCCCCCCCC(CCCCCC)COC(=O)CCCCCC(=O)OCC1(COC(=O)CCCCCC(=O)OCC(CCCCCC)CCCCCCCC)CCN(C(=O)CCCN2CCCCC2)CC1` (stereo not drawn) [Compound 59], in series [1], the “Encapsulation Efficiency” value came to 102.1%. In series [2], the “Apparant Pka” value worked out at 11.77. For the same molecule, in series [3], the polydispersity was found to be 0.378 and the “size (nm)” value came to 109.8 nm.

With `CCCCCCCCCCCC(=O)OCC1(COC(=O)CCCCCCCCCCC)CCN(CCCCCO)CC1` [Compound 20], the “Encapsulation Efficiency” value in series [1] is 92.6%. Besides, in series [2], the “Apparant Pka” value is listed as 8.23. Also, in series [3], the polydispersity is 0.161 and the “size (nm)” value was found to be 81.62 nm.

For `CCCCCCCCCC(=O)OCC1(COC(=O)CCCCCCCCC)CCN(C(=O)CCN(CCCCCC)CCCCCC)CC1` [Compound 32], the “Encapsulation Efficiency” value in series [1] stood at 88.2%. For the same molecule, the “Apparant Pka” value in series [2] stood at 6.34. In series [3], the polydispersity was determined as 0.13 and the “size (nm)” value was 93.36 nm.

For `CCCCCCCCCCCC(=O)OCC1(COC(=O)CCCCCCCCCCC)CCN(C(=O)CCCN2CCCCCC2)CC1` [Compound 41], in series [1], the “Encapsulation Efficiency” value was determined as 96.1%. In series [2], the “Apparant Pka” value is reported as about 12.82. In addition, in series [3], the polydispersity is recorded as 0.15 and the “size (nm)” value turned out to be 90.15 nm.

For `CCCCCCCCC(CCCCCC)COC(=O)CCCCCC(=O)OCC1(COC(=O)CCCCCC(=O)OCC(CCCCCC)CCCCCCCC)CCN(C(=O)CCN2CCCC2)CC1` (stereo not drawn) [Compound 53], in series [1], the “Encapsulation Efficiency” value turned out to be 102.1%. For the same molecule, the “Apparant Pka” value in series [2] is reported as 8.09. In series [3], the polydispersity is on record as 0.316 and the “size (nm)” value came out at 94.1 nm.

For the molecule `CCCCCCCCCCCC(=O)OCC1(COC(=O)CCCCCCCCCCC)CCN(C(C)CO)CC1` (stereo not drawn) [Compound 17], the “Encapsulation Efficiency” value in series [1] is listed as 96.6%. In series [2], the “Apparant Pka” value came out at 7.68. Besides, in series [3], the polydispersity was 0.159 and the “size (nm)” value stood at 54.04 nm.
